Test results published in patent publication US11578079B2, “SUMO inhibitor compounds and uses thereof” (CITY OF HOPE, priority 2018, dated 2023).

Legend:
SUMO = target: T1, SUMO (Homo sapiens, UniProt Q9UBT2); experiment: SUMO activity (Table I, biological activities); type: biochemical; set-up: key: + (less active); ++ (active); +++ (most active)
T1 sequence (Q9UBT2 1-640): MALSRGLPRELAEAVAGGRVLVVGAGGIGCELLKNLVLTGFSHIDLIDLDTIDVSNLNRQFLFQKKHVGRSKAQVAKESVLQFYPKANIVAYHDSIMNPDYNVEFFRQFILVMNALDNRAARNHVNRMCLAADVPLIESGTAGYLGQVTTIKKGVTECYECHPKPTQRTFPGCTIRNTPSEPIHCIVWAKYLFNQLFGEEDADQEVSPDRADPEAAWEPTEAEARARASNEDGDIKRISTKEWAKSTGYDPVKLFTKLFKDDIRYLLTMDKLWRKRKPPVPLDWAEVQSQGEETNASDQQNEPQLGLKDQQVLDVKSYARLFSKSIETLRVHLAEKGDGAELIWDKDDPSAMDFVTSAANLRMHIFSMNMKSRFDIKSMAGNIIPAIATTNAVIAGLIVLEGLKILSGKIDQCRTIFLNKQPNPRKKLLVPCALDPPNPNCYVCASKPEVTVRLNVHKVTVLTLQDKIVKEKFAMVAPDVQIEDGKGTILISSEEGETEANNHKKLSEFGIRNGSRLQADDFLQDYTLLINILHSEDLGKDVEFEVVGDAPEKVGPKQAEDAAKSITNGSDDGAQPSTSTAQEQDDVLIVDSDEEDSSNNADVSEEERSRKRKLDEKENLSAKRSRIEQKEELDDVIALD
T1 sequence (Q9UBE0 1-346 partner): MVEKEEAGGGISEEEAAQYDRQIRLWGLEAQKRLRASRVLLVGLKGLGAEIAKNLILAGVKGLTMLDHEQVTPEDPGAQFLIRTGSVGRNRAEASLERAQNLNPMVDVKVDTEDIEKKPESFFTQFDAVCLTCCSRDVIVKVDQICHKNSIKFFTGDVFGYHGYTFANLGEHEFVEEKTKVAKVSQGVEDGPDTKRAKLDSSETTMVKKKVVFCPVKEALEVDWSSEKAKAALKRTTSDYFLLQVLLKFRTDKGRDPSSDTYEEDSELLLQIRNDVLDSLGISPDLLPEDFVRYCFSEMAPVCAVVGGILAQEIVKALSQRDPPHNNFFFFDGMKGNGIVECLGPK

c-Myc = c-Myc activity (Table I, biological activities); set-up: key: + (less active); ++ (active); +++ (most active)

SMILES	SUMO (SUMO)	c-Myc (c-Myc)
COC(=O)C1=C(C(=O)NC2CCN(Cc3ccccc3)CC2)C2C=CC1(C(Cc1ccccc1)Nc1ccccc1)O2 (stereo not drawn) [Compound 288]	++	++
C=CCCC(Nc1ccccc1)C12C=CC(O1)C(C(=O)OC)=C2C(=O)OC (stereo not drawn) [Compound 181]	++	+
CCN(CC)CCNC(=O)C1=C(C(=O)OC)C2(C(Cc3ccc(C(F)(F)F)cc3)Nc3ccccc3)C=CC1O2 (stereo not drawn) [Compound 424]	++	++
COC(=O)C1=C(C(=O)NCCN2CCCC2)C2C=CC1(C(Cc1ccccc1)Nc1ccc(F)cc1)O2 (stereo not drawn) [Compound 443]	+++	++
COC(=O)C1=C(C(=O)NC2CCN(C(C)C)CC2)C2C=CC1(C(Cc1ccccc1)Nc1ccccc1)O2 (stereo not drawn) [Compound 277]	+++	++
COC(=O)C1=C(C(=O)OC)C2(C(Cc3ccc(Cl)cc3)Nc3cc(F)cc(F)c3)C=CC1O2 (stereo not drawn) [Compound 425]	++	+
COCCN1CCC(NC(=O)C2=C(C(=O)OC)C3(C(Cc4ccccc4)Nc4ccccc4)C=CC2O3)CC1 (stereo not drawn) [Compound 278]	+++	++
COC(=O)C1=C(C(=O)OC)C2(C(Cc3ccccc3)Oc3ccccc3)OC1C1OC12 (stereo not drawn) [Compound 515]	++	+
COC(=O)C1=C(C(=O)OC)C2(C(Cc3ccccc3)Nc3ccccc3)C=CC1(C)O2 (stereo not drawn) [Compound 586]	++	+
COC(=O)C1=C(C(=O)NCCN(C)C)C2C=CC1(C(Cc1ccc(F)cc1)Nc1cc(F)cc(Cl)c1)O2 (stereo not drawn) [Compound 452]	++	+
COC(=O)C1=C(C(=O)Nc2ccc(OC)cc2OC)C2C=CC1(C(Cc1ccccc1)Nc1ccccc1)O2 (stereo not drawn) [Compound 353]	+	+
COC(=O)C1=C(C(=O)Nc2ccc(C)nc2)C2C=CC1(C(Cc1ccccc1)Nc1ccccc1)O2 (stereo not drawn) [Compound 289]	++	++
COC(=O)C1=C(C(=O)NC2CCN(C(=O)c3ccc(C#N)cc3)CC2)C2C=CC1(C(Cc1ccccc1)Nc1ccccc1)O2 (stereo not drawn) [Compound 379]	++	+
COC(=O)C1=C(C(=O)Nc2ccc(OCCN3CCCC3)cc2)C2C=CC1(C(Cc1ccccc1)Nc1ccccc1)O2 (stereo not drawn) [Compound 505]	++	+
CCN(CC)CCNC(=O)C1=C(C(=O)OC)C2(C(Cc3ccccc3)Nc3ccc(F)cc3F)C=CC1O2 (stereo not drawn) [Compound 410]	++	+
CCOC(=O)C1=C(C(=O)Nc2ccc(C)c(F)c2)C2C=CC1(C(Oc1ccc(F)cc1)c1ccc(CN3CCOCC3)cc1)O2 (stereo not drawn) [Compound 486]	+	++
COC(=O)C1=C(C(=O)OC)C2(C(Cc3ccccc3)Nc3cccc(Oc4ccccc4)c3)C=CC1O2 (stereo not drawn) [Compound 307]	+++	+
COC(=O)C1=C(C(=O)NCCN(C)C)C2C=CC1(C(Cc1ccccc1)Nc1cc(F)cc(F)c1)O2 (stereo not drawn) [Compound 399]	++	+
CCOC(=O)C1=C(C(=O)Nc2ccc(C)c(F)c2)C2(C)C=CC1(C(Nc1ccccc1)c1ccc(CN3CCOCC3)cc1)O2 (stereo not drawn) [Compound 579]	+	+
COC(=O)C1=C(C(=O)NCCN(C)C)C2C=CC1(C(Cc1cccc(F)c1)Nc1cc(F)cc(F)c1)O2 (stereo not drawn) [Compound 435]	+++	++
COC(=O)C1=C(C(=O)Nc2ccc(OC)nc2)C2C=CC1(C(Cc1ccccc1)Nc1cc(F)cc(Cl)c1)O2 (stereo not drawn) [Compound 218]	+++	+
COC(=O)C1=C(C(=O)NC2CCN(C)CC2)C2C=CC1(C(Cc1ccccc1)Nc1ccc(F)cc1)O2 (stereo not drawn) [Compound 262]	++	++
COC(=O)C1=C(C(=O)NC2CCN(C)CC2)C2C=CC1(C(Cc1ccccc1)Nc1cc(F)cc(Cl)c1)O2 (stereo not drawn) [Compound 219]	++	++
COC(=O)C1=C(C(=O)Nc2ccc(C)c(F)c2)C2C=CC1(C(Oc1ccccc1)c1ccc(CN3CCOCC3)cc1)O2 (stereo not drawn) [Compound 496]	+	+
COCCNC(=O)C1=C(C(=O)OC)C2(C(Cc3ccccc3)Nc3ccccc3)C=CC1O2 (stereo not drawn) [Compound 403]	++	+
CCOC(=O)C1=C(C(=O)Nc2ccc(Oc3ccccc3)cc2)C2C=CC1(C(Nc1ccccc1)c1ccc(CN3CCOCC3)cc1)O2 (stereo not drawn) [Compound 569]	+	+
COC(=O)C1=C(C(=O)Nc2ccc3c(c2)OCO3)C2C=CC1(C(Cc1ccccc1)Nc1ccccc1)O2 (stereo not drawn) [Compound 309]	+	+
CCOc1cccc(NC(Cc2ccccc2)C23C=CC(O2)C(C(=O)NC)=C3C(=O)OC)c1 (stereo not drawn) [Compound 250]	++	

Further lines, with some results ahead:

SUMO (SUMO)	SMILES	c-Myc (c-Myc)
++	CCOC(=O)C1=C(C(=O)OCC)C2(C(Cc3ccccc3)Nc3ccccc3)C=CC1(C)O2 (stereo not drawn) [Compound 260]	+
+++	COC(=O)C1=C(C(=O)NCCN2CCCC2)C2C=CC1(C(Cc1ccc(C)cc1)Nc1cc(F)cc(F)c1)O2 (stereo not drawn) [Compound 442]	++
++	COC(=O)C1=C(C(=O)OC)C2(C(Cc3ccccc3)Nc3cc(F)cc(F)c3)C=CC1O2 (stereo not drawn) [Compound 167]	+
++	COC(=O)C1=C(C(=O)NC2CCN(C)CC2)C2(C(Cc3ccccc3)Nc3cc(F)cc(F)c3)C=CC1O2 (stereo not drawn) [Compound 311]	++
++	CC#CC(Nc1ccccc1)C12C=CC(O1)C(C(=O)OC)=C2C(=O)OC (stereo not drawn) [Compound 172]	++
++	COC(=O)C1=C(C(=O)Nc2ccncc2)C2C=CC1(C(Cc1ccccc1)Nc1cc(F)cc(Cl)c1)O2 (stereo not drawn) [Compound 220]	+
++	COC(=O)C1=C(C(=O)Nc2ccc(OCCN(C)C)c(F)c2)C2C=CC1(C(Cc1ccccc1)Nc1ccccc1)O2 (stereo not drawn) [Compound 500]	+
++	CCOC(=O)C1=C(C(F)(F)F)C2C=CC1(C1OCCO1)O2 (stereo not drawn) [Compound 519]	+
+	COC(=O)C1=C(C(=O)NCc2ccccn2)C2C=CC1(C(Cc1ccccc1)Nc1ccccc1)O2 (stereo not drawn) [Compound 396]	++
+++	COC(=O)C1=C(C(=O)Nc2cnc(C)nc2)C2C=CC1(C(Cc1ccccc1)Nc1ccccc1)O2 (stereo not drawn) [Compound 478]	+
++	CCN(CC)CCNC(=O)C1=C(C(=O)OC)C2(C(Cc3ccccc3)Oc3ccccc3)C=CC1O2 (stereo not drawn) [Compound 439]	++
+++	CCOc1cccc(NC(Cc2ccccc2)C23C=CC(O2)C(C(=O)NCCN(C)C)=C3C(=O)OC)c1 (stereo not drawn) [Compound 251]	+
++	COC(=O)C1=C(C(=O)NC2CCN(C(=O)c3cncnc3)CC2)C2C=CC1(C(Cc1ccccc1)Nc1ccccc1)O2 (stereo not drawn) [Compound 390]	+
+++	COC(=O)C1=C(C(=O)Nc2ccc(C)c(F)c2)C2C=CC1(C(Cc1ccccc1)Nc1ccccc1F)O2 (stereo not drawn) [Compound 351]	+
+	CCOC(=O)C1=C(C(=O)Nc2ccc(C)c(F)c2)C2C=CC1(C(Nc1ccc(C#N)cc1)c1ccc(CN3CCOCC3)cc1)O2 (stereo not drawn) [Compound 612]	+
++	Cc1ccc(S(=O)(=O)C2=CC3(C4OCCO4)C=CC2O3)cc1 (stereo not drawn) [Compound 516]	+
++	COC(=O)C1=C(C(=O)OC)C2(C(Nc3ccccc3)C3CCCC3)C=CC1O2 (stereo not drawn) [Compound 186]	+
++	COC(=O)C1=C(C(=O)NCCN(C)C)C2C=CC1(C(Cc1ccccc1)Nc1c(F)cccc1F)O2 (stereo not drawn) [Compound 432]	+
++	COC(=O)C1=C(C(=O)NCCN2CCC2)C2C=CC1(C(Cc1ccccc1)Nc1ccccc1)O2 (stereo not drawn) [Compound 469]	+
++	CCOC(=O)C1=C(C(=O)Nc2ccc(C)c(F)c2)C2C=CC1(C(Nc1cccc(C)c1)c1ccc(CN3CCOCC3)cc1)O2 (stereo not drawn) [Compound 623]	+
++	CCN(CC)CCNC(=O)C1=C(C(=O)OC)C2(C(Cc3ccc(Cl)cc3)Nc3cc(F)cc(F)c3)C=CC1O2 (stereo not drawn) [Compound 427]	++
++	COC(=O)C1=C(C(=O)NCCN(C)C(=O)OC(C)(C)C)C2C=CC1(C(Cc1ccccc1)Nc1ccccc1)O2 (stereo not drawn) [Compound 419]	+
